Assay results taken from patent US7531646B2, “β-D-ribosidase activity indicators with a chromogenic substrate” (priority 2001, dated 2009).

Legend:
Test in all cases: Substrate hydrolysis on Columbia agar
Assay type in all cases: cell-based
[1] = tested on: E. coli 0157; details: 300 mg/l, 18 hours
[2] = tested on: Shigella dysenteriae; details: 300 mg/l, 18 hours
[3] = tested on: Hafnia alvei; details: 300 mg/l, 18 hours
[4] = tested on: K. oxytoca; details: 300 mg/l, 18 hours
[5] = tested on: C. freundii; details: 300 mg/l, 18 hours
[6] = tested on: C. diversus; details: 300 mg/l, 18 hours
[7] = tested on: Aeromonas hydrophila; parameters: key to the marks not given beside the values; details: Aeromonas hydrophila NCTC 8049; 300 mg/l; 18 hours
[8] = tested on: Aeromonas sobria; details: Aeromonas sobria NCTC 11215; 300 mg/l; 18 hours
[9] = tested on: E. aerogenes; details: 300 mg/l, 18 hours
[10] = tested on: Salmonella typhi; details: Salmonella typhi NCTC 8385; 300 mg/l; 18 hours
[11] = tested on: Salmonella orthmarchen; details: Salmonella orthmarchen SAX 59; 300 mg/l; 18 hours
[12] = tested on: Y. enterocolitica; details: 300 mg/l, 18 hours
[13] = tested on: Providencia alcalifaciens; details: 300 mg/l, 18 hours
[14] = tested on: P. vulgaris; details: 300 mg/l, 18 hours
[15] = tested on: P. penneri; details: P. penneri PPE 1; 300 mg/l; 18 hours
[16] = tested on: Vibrio vulnificus; details: 300 mg/l, 18 hours
[17] = tested on: Streptococcus crista; details: Streptococcus crista NCTC 12479; 300 mg/l; 18 hours
[18] = tested on: Streptococcus vestibularis; details: Streptococcus vestibularis NCTC 12166; 300 mg/l; 18 hours
[19] = tested on: Streptococcus gordonii; details: Streptococcus gordonii NCTC 7865; 300 mg/l; 18 hours
[20] = tested on: Haemolytic streptococcus A; details: 300 mg/l, 18 hours
[21] = tested on: Listeria seerigeri; details: Listeria seerigeri PHLS wild; 300 mg/l; 18 hours
[22] = tested on: Listeria innocua; details: Listeria innocua PHLS wild; 300 mg/l; 18 hours
[23] = tested on: Arcanobacterium haemolyticus; details: Arcanobacterium haemolyticus NCTC 52; 300 mg/l; 18 hours
[24] = tested on: Bacillus licusniforms; details: Bacillus licusniforms NCIMB 9375; 300 mg/l; 18 hours
[25] = tested on: Bacillus cereus; details: Bacillus cereus NCTC; 300 mg/l; 18 hours
[26] = tested on: Staphylococcus haemolyticus; details: 300 mg/l, 18 hours
[27] = tested on: Staphylococcus epidermidis; details: 300 mg/l, 18 hours
[28] = tested on: Enterococcus raffinosis; details: Enterococcus raffinosis NCTC 13192; 300 mg/l; 18 hours
[29] = tested on: Enterococcus mundtii; details: Enterococcus mundtii NCTC 12363; 300 mg/l; 18 hours
[30] = tested on: Enterococcus faecium; details: 300 mg/l, 18 hours

3′,4′-dihydroxyflavone-4′-β-D-glucopyranoside sodium salt [DHF-glucoside]
Hydrolysis by Gram negative bacteria ([1]; E. coli 0157 NCTC 12079): − | Hydrolysis by Gram negative bacteria ([1]; E. coli 0157 NCTC 12080): − | Hydrolysis by Gram negative bacteria ([1]; E. coli 0157 NCTC 12900): − | Hydrolysis by Gram negative bacteria ([1]; E. coli 0157 NCTC 13125): − | Hydrolysis by Gram negative bacteria ([1]; E. coli 0157 NCTC 13126): − | Hydrolysis by Gram negative bacteria ([1]; E. coli 0157 NCTC 13127): − | Hydrolysis by Gram negative bacteria ([1]; E. coli 0157 NCTC 13128): − | Hydrolysis by Gram negative bacteria ([2]; Shigella dysenteriae (type 2) NCTC 9952): − | Hydrolysis by Gram negative bacteria ([2]; Shigella dysenteriae (type 3) NCTC 9720): − | Hydrolysis by Gram negative bacteria ([2]; Shigella dysenteriae (type 4) NCTC 9759): − | Hydrolysis by Gram negative bacteria ([3]; Hafnia alvei HAL 2): − | Hydrolysis by Gram negative bacteria ([3]; Hafnia alvei NCTC 8105): − | Hydrolysis by Gram negative bacteria ([4]; K. oxytoca KOX 1): + | Hydrolysis by Gram negative bacteria ([4]; K. oxytoca KOX 2): + | Hydrolysis by Gram negative bacteria ([5]; C. freundii CFR 1): + | Hydrolysis by Gram negative bacteria ([5]; C. freundii CFR 2): − | Hydrolysis by Gram negative bacteria ([5]; C. freundii CFR 3): − | Hydrolysis by Gram negative bacteria ([5]; C. freundii CFR 4): + | Hydrolysis by Gram negative bacteria ([5]; C. freundii NCTC 9750): + | Hydrolysis by Gram negative bacteria ([6]; C. diversus CDI 1): − | Hydrolysis by Gram negative bacteria ([6]; C. diversus CDI 2): − | Hydrolysis by Gram negative bacteria [7]: ++ | Hydrolysis by Gram negative bacteria [8]: − | Hydrolysis by Gram negative bacteria ([9]; E. aerogenes EAE 1): + | Hydrolysis by Gram negative bacteria ([9]; E. aerogenes NCIMB 10102): + | Hydrolysis by Gram negative bacteria [10]: − | Hydrolysis by Gram negative bacteria [11]: − | Hydrolysis by Gram negative bacteria ([12]; Y. enterocolitica NCTC 10460): − | Hydrolysis by Gram negative bacteria ([12]; Y. enterocolitica NCTC 11176): − | Hydrolysis by Gram negative bacteria ([12]; Y. enterocolitica NCTC 11177): − | Hydrolysis by Gram negative bacteria ([12]; Y. enterocolitica NCTC 11600): − | Hydrolysis by Gram negative bacteria ([13]; Providencia alcalifaciens PAL 1): + | Hydrolysis by Gram negative bacteria ([13]; Providencia alcalifaciens PAL 2): + | Hydrolysis by Gram negative bacteria ([14]; P. vulgaris PVU 2): − | Hydrolysis by Gram negative bacteria ([14]; P. vulgaris PVU 4): − | Hydrolysis by Gram negative bacteria ([14]; P. vulgaris PVU 5): − | Hydrolysis by Gram negative bacteria [15]: − | Hydrolysis by Gram negative bacteria ([16]; Vibrio vulnificus NCTC 11066): + | Hydrolysis by Gram negative bacteria ([16]; Vibrio vulnificus NCTC 11067): + | Hydrolysis by Gram positive organisms [17]: − | Hydrolysis by Gram positive organisms [18]: − | Hydrolysis by Gram positive organisms [19]: − | Hydrolysis by Gram positive organisms ([20]; Haemolytic streptococcus A 1): − | Hydrolysis by Gram positive organisms ([20]; Haemolytic streptococcus A 2): − | Hydrolysis by Gram positive organisms ([20]; Haemolytic streptococcus A 3): − | Hydrolysis by Gram positive organisms [21]: ++ | Hydrolysis by Gram positive organisms [22]: ++ | Hydrolysis by Gram positive organisms [23]: − | Hydrolysis by Gram positive organisms [24]: + | Hydrolysis by Gram positive organisms [25]: + | Hydrolysis by Gram positive organisms ([26]; Staphylococcus haemolyticus RB 66): − | Hydrolysis by Gram positive organisms ([26]; Staphylococcus haemolyticus RB 67): − | Hydrolysis by Gram positive organisms ([26]; Staphylococcus haemolyticus RB 68): − | Hydrolysis by Gram positive organisms ([26]; Staphylococcus haemolyticus RB 69): − | Hydrolysis by Gram positive organisms ([26]; Staphylococcus haemolyticus RB 70): − | Hydrolysis by Gram positive organisms ([27]; Staphylococcus epidermidis RB60): − | Hydrolysis by Gram positive organisms ([27]; Staphylococcus epidermidis RB62): − | Hydrolysis by Gram positive organisms ([27]; Staphylococcus epidermidis RB63): − | Hydrolysis by Gram positive organisms ([27]; Staphylococcus epidermidis RB64): ++ | Hydrolysis by Gram positive organisms ([27]; Staphylococcus epidermidis RB65): − | Hydrolysis by Gram positive organisms [28]: ++ | Hydrolysis by Gram positive organisms [29]: ++ | Hydrolysis by Gram positive organisms ([30]; Enterococcus faecium 1): ++ | Hydrolysis by Gram positive organisms ([30]; Enterococcus faecium 2): ++ | Hydrolysis by Gram positive organisms ([30]; Enterococcus faecium 3): ++ | Hydrolysis by Gram positive organisms ([30]; Enterococcus faecium 4): ++ | Hydrolysis by Gram positive organisms ([30]; Enterococcus faecium 5): ++ | Hydrolysis by Gram positive organisms ([30]; Enterococcus faecium 6): ++ | Hydrolysis by Gram positive organisms ([30]; Enterococcus faecium 7): ++ | Hydrolysis by Gram positive organisms ([30]; Enterococcus faecium 121285 - wild ′99): ++
